Data published in patent US9199967B2, “Substituted heterocyclic amine compounds as cholestryl ester-transfer protein (CETP) inhibitors” (Dr. Reddy's Laboratories Ltd., priority 2011, dated 2015).

Target: T1, rCETP (Homo sapiens, UniProt P11597)
T1 sequence (P11597 18-493): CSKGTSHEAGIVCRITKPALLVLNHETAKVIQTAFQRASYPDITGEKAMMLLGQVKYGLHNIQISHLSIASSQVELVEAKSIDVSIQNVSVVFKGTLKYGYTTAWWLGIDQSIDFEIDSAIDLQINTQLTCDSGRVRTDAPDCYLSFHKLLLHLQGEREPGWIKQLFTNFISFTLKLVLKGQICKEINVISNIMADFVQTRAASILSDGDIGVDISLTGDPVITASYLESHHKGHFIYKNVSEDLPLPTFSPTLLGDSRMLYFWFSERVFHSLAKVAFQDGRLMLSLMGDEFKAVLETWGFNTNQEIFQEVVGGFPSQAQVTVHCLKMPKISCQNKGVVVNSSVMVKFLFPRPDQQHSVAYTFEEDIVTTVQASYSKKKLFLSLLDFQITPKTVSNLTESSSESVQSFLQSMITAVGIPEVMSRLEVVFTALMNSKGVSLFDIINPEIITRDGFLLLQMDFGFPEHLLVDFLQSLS
Test: In vitro CETP inhibition assay, fluorometric kit (ROAR Biomedicals)
Type: biochemical
Details: rCETP 50 ng, 37° C., 90 minutes, fluorescence Ex 492 nm / Em 516 nm; read-out: IC50 (nM), inhibitory effect on CETP
Excerpt: An in vitro cholesteryl ester transfer protein inhibition (CETP) assay using a commercially available fluorometric assay kit from ROAR Biomedicals, USA was used to measure the CETP inhibition activity of the compounds of this application. This assay kit uses a donor molecule containing a fluorescent self-quenched neutral lipid that is transferred to an acceptor molecule in the presence of CETP enzyme. The CETP-mediated transfer of the fluorescent neutral lipid to the acceptor molecule results in an increase in fluorescence (Excitation: 492 nm; Emission: 516 nm).
A 20 mM stock solution of compounds were prepared in 100% DMSO and further dilutions were made such that the final concentration of DMSO in the reaction mix was 1%. […] The assay was performed in 96 well microplates and in each well, the reaction mixture contained 190 μl of assay buffer (150 mM NaCl, 10 mM Tris and 2 mM EDTA, pH-7.4), 4 μl of donor particle, 4 IA of acceptor particle, rCETP (50 ng) and 2 μl of test compound at varying final concentration of 0.1, 1, 10, 100, 1000 & 10000 nM. Two control reactions were performed, one without test compound (positive control) and the other without the rCETP (negative control). The reactions were incubated at 37° C. for 90 minutes and the reaction plate was transferred to a PCR machine MX3005P and the fluorescence units (FLU) were quantified (Excitation: 492 nm; Emission: 516 nm).
The negative control values were subtracted from the positive control as well as all the test values to correct for background fluorescence. The percentage inhibition of activity is calculated by using the following equation: % Inhibition of CETP activity=[100−(100×(FLU in test/FLU in positive control))].
The half maximal inhibitory concentration (IC50) was determined using the BIOGRAPH software (version no. 3.3).

SMILES	IC50 [nM]
CC1(C)CCc2cc(CN(Cc3cc(C(F)(F)F)cc(C(F)(F)F)c3)c3ncc(C(N)=O)cn3)c(N(CC3CC3)CC3CC3)nc21 [Example 9, 2-(((2-(bis(cyclopropylmethyl)amino)-7,7-dimethyl-6,7-dihydro-5H-cyclopenta[b]pyridin-3-yl)methyl)(3,5-bis(trifluoromethyl)benzyl)amino) pyrimidine-5-carboxamide]	~94
CC(=O)c1cnc(N(Cc2cc(C(F)(F)F)cc(C(F)(F)F)c2)Cc2cc3c(nc2N(CC2CC2)CC2CC2)C(C)(C)CC3)nc1 [Example 4, 1-(2-(((2-(bis(cyclopropylmethyl)amino)-7,7-dimethyl-6,7-dihydro-5H-cyclopenta[b]pyridin-3-yl)methyl)(3,5-bis(trifluoromethyl)benzyl)amino)pyrimidin-5-yl)ethanone]	~50
CC1CCCc2cc(CN(Cc3cc(C(F)(F)F)cc(C(F)(F)F)c3)c3ncc(N4CCOCC4)cn3)c(N(CC3CC3)CC3CC3)nc21 (stereo not drawn) [Example 11, 3-(((3,5-bis(trifluoromethyl)benzyl)(5-morpholinopyrimidin-2-yl)amino)methyl)-N,N-bis(cyclopropylmethyl)-8-methyl-5,6,7,8-tetrahydroquinolin-2-amine]	~40
CC1(C)CCc2cc(CN(Cc3cc(C(F)(F)F)cc(C(F)(F)F)c3)c3ccc4[nH]c(=O)oc4c3)c(N(CC3CC3)CC3CC3)nc21 [Example 17, 6-(((2-(bis(cyclopropylmethyl)amino)-7,7-dimethyl-6,7-dihydro-5H-cyclopenta[b]pyridin-3-yl)methyl)(3,5-bis(trifluoromethyl)benzyl)amino)benzo[d]oxazol-2(3H)-one]	~16
CC1(C)CCc2cc(CN(Cc3cc(C(F)(F)F)cc(C(F)(F)F)c3)c3ncc(-c4cc[nH]n4)cn3)c(N(CC3CC3)CC3CC3)nc21 [Example 6, 3-(((5-(1H-pyrazol-3-yl)pyrimidin-2-yl)(3,5-bis(trifluoromethyl)benzyl)amino)methyl)-N,N-bis(cyclopropylmethyl)-7,7-dimethyl-6,7-dihydro-5H-cyclopenta[b]pyridin-2-amine]	~29
CC1(C)CCc2cc(CN(Cc3cc(C(F)(F)F)cc(C(F)(F)F)c3)c3ncc(N4CCCC4=O)cn3)c(N(CC3CC3)CC3CC3)nc21 [Example 2, 1-(2-(((2-(bis(cyclopropylmethyl)amino)-7,7-dimethyl-6,7-dihydro-5H-cyclopenta[b]pyridin-3-yl)methyl)(3,5-bis(trifluoromethyl)benzyl)amino)pyrimidin-5-yl) pyrrolidin-2-one]	~29
CC1CCc2cc(CN(Cc3cc(C(F)(F)F)cc(C(F)(F)F)c3)c3ncc(N4CCOCC4)cn3)c(N(CC3CC3)CC3CC3)nc21 (stereo not drawn) [Example 10, 3-(((3,5-bis(trifluoromethyl)benzyl)(5-morpholinopyrimidin-2-yl)amino)methyl)-N,N-bis(cyclopropylmethyl)-7-methyl-6,7-dihydro-5H-cyclopenta[b]pyridin-2-amine]	~90
CC1(C)CCc2cc(CN(Cc3cc(C(F)(F)F)cc(C(F)(F)F)c3)c3ncc(N4CCOCC4)cn3)c(N(CC3CC3)CC3CC3)nc21 [Example 3, 3-(((3,5-bis(trifluoromethyl)benzyl)(5-morpholinopyrimidin-2-yl)amino)methyl)-N,N-bis(cyclopropylmethyl)-7,7-dimethyl-6,7-dihydro-5H-cyclopenta[b]pyridin-2-amine]	~20
CC1(C)CCc2cc(CN(Cc3cc(C(F)(F)F)cc(C(F)(F)F)c3)c3ncc(-c4ccon4)cn3)c(N(CC3CC3)CC3CC3)nc21 [Example 7, 3-(((3,5-bis(trifluoromethyl)benzyl)(5-(isoxazol-3-yl)pyrimidin-2-yl)amino)methyl)-N,N-bis(cyclopropylmethyl)-7,7-dimethyl-6,7-dihydro-5H-cyclopenta[b]pyridin-2-amine]	~33
